In patent publication US20090253589A1, “Method for Testing Active Compounds” (Nambition GmbH, priority 2006, published 2009):
“Also recorded” adds a separate entry of the source. Where two headings read alike, the source gives them in different places. Each block holds one compound with its values, some of them ahead of it.

Legend:
[1] = molecular target: T1, rhodopsin (Bos taurus, UniProt P02699); assay: Single-molecule force spectroscopy (AFM) unfolding of rhodopsin in native ROS disc membranes: unfolding forces and pathways; parameters: ROS were purified from fresh bovine retinas as described [33]; from tissue; host or cells: bovine retina, rod outer segment (ROS) disc membranes; species or system bovine
Target sequence in this assay (P02699 whole entry): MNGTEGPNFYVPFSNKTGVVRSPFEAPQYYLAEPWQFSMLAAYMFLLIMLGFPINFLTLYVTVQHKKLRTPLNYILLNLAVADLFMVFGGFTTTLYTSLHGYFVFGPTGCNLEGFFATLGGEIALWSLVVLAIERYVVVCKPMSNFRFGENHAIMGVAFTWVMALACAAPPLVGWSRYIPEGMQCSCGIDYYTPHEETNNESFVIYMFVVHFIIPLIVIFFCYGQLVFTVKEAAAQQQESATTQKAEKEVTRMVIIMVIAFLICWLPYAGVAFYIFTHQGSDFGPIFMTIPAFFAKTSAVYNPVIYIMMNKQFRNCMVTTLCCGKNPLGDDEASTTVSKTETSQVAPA

[2] = molecular target: T2, rhodopsin Cys110-Cys187 disulfide bond (Bos taurus, UniProt P02699); assay: SMFS of rhodopsin: ratio of 65 nm (intact Cys110-Cys187 bond) to 95 nm (absent bond) force-distance curves; parameters: species or system bovine; conditions: for effect on ratio of intact to broken Cys110-Cys187 disulfide bonds (65 nm vs 95 nm rhodopsin): increasing Zn^2+ concentrations, FIG. 4
T2 construct: ROS were purified from fresh bovine retinas as described [33]; from tissue; host or cells: bovine retina, rod outer segment (ROS) disc membranes
From the text: This is due to the fact that the loop not unraveled by SMFS in the Cys110-Cys187 form is unfolded in the 95 nm form.
These force spectra were obtained in substantial absence of zinc, since EDTA was used in the preparation of the ROS disc membranes.
The ratio of the Cys110-Cys187 rhodopsin force-distance curves and the 95 nm rhodopsin force-distance curves was changed in the presence of dithiothreitol and N-ethylmaleimide. The ratio of the 65 nm curves to the 95 nm curves was 1:2 in the presence of dithiothreitol and 7:1 in the presence of N-ethylmaleimide. Dithiothreitol likely disrupts the Cys110-Cys187 disulfide bond, and N-ethylmaleimide alkylates Cys 185. The action of these two compounds likely occurs during the unfolding of rhodopsin, since the residues modified by these reagents are not accessible in the native structure of the protein, as can be judged from the known crystal structure of rhodopsin.
AFM imaging and force spectroscopy were performed as described elsewhere. Disc membranes were adsorbed onto a freshly cleaved mica surface as described previously. For force measurements, the AFM stylus was approached to the Rh surface while applying a constant force of ˜1 nN. After a contact time of ˜0.5-1 s, the stylus was retracted from the membrane surface at a constant velocity of 300 nm/s. All experiments were performed in 150 mM KCl, 25 mM MgCl2, 20 mM Tris, pH 7.8, at room temperature. In experiments where rhodopsin was treated with 1 mM EDTA (Sigma), ZnCl2 (Fisher Scientific), CaCl2, CdCl2, CoCl2, or CuCl2, the buffer was supplemented with the specified amounts of the reagent and the pH adjusted to 7.8. When assayed with 0, 10, 25, 50, 100, 200 and 400 μM ZnCl2, rhodopsin in native ROS disc membranes was diluted in the dilution buffer with the required amount of ZnCl2 and incubated on ice for ˜40 mins—1 h in complete darkness. In the case of other metal ions the sample preparation was carried out in a similar way. In the experiment where 1 mM EDTA was used, 25 mM MgCl2 was not added to the buffer. All dilutions were carried out under dim red light and experiments performed in a completely dark room. Force curves were collected over a period of less than 1 h to prevent bleaching of rhodopsin. The red laser on the AFM promoted minimal bleaching of Rh. ROS membranes solubilized in n-dodecyl-β-D-maltoside were bleached less than 5% after incubation under the AFM laser for 1 hr.
In the first step, the force-distance curves were separated based on their lengths. […] The number of extended amino acid residues at each peak was then calculated using the contour length obtained from the WLC fits. […] To measure the unfolding force and probability of unfolding for each individual structural segment, every event of each curve was analyzed.

[3] = molecular target: T1, rhodopsin; assay: SMFS cleavage experiment: ROS membranes digested with endoproteinase Glu-C, fraction of curves by length; parameters: total number of curves obtained from the uncleaved native Rh sample; from tissue; host or cells: bovine retina ROS membranes, treated with endoproteinase Glu-C (Roche Applied Science); species or system bovine
Protocol: For cleavage experiments, ROS membranes (2 mg/mL) resuspended in Ringer's buffer (10 mM Hepes, 130 mM NaCl, 3.6 mM KCl, 2.4 mM MgCl2, 1.2 mM CaCl2, 0.02 mM EDTA, pH 7.4) were treated with endoproteinase Glu-C (Roche Applied Science, Indianapolis, Ind., USA) at a substrate to enzyme ratio of 10:1 (w/w). Membranes were digested with the enzyme for 2 h at room temperature and 1.5 h on ice. The reaction was terminated by washing membranes three times with Ringer's buffer containing 5 mM benzamidine (1 mL) and one time with buffer A (1 mL). Membranes were resuspended in buffer A for SMFS studies. For solubilization of rhodopsin (Rh), ROS membranes were resuspended in 20 mM BTP, 150 mM NaCl, 1% n-dodecyl-β-D-maltoside, pH 7.4. The membrane suspension was shaken at room temperature for 10 min and then centrifuged to remove insoluble material at 164,000×g for 30 min. Protein concentration was determined using the Bradford Protein Assay Kit from Bio-Rad Laboratories (Hercules, Calif., USA).
As mentioned above the molecule could detach from the AFM stylus during unfolding. Therefore, for the cleavage experiments with endoproteinase Glu-C it is important to be certain that the <40 nm length force-distance curves are mainly from the N-terminal fragment of the molecule and not from the detached molecule. […]
Target sequence in this assay (P02699 whole entry): as above
Target sequence in this assay (P02699 240-341 limits assumed): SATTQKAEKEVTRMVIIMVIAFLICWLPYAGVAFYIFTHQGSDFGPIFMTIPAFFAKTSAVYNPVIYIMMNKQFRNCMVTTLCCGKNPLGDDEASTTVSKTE

[4] = 200 μM metal ion in buffer, FIG. 3A
[5] = dark state rhodopsin, native ROS disc membranes
[6] = in the presence of N-ethylmaleimide

T2 sequence (P02699 whole entry): as the sequence (P02699 whole entry) above

- effect on stability of rhodopsin segments (difference in unfolding force relative to 0 μM Zn^2+) [1, 4]: stabilizes most segments of the receptor
- zinc concentration above which the stability of rhodopsin increased [1, 5]: above 50 μM
- zinc concentration giving the highest stability of dark state rhodopsin [1, 5]: 200 µM
- effect on ratio of intact to broken Cys110-Cys187 disulfide bonds (65 nm vs 95 nm rhodopsin) [2]: favour the level of 65 nm rhodopsin
Compound: [Cl-].[Cl-].[Zn+2] [zinc, ZnCl2]
- effect on occurrence probabilities of the unfolding pathways ([1]; zinc 10, 25, 50, 100, 200 and 400 μM, other metal ions 200 μM): leads to a change in the occurrence probabilities of the unfolding pathways
- effect on ratio of intact to broken Cys110-Cys187 disulfide bonds (65 nm vs 95 nm rhodopsin) ([2]; listed as Zn^2+): clearly stabilizes the disulfide bond in a concentration dependent manner

- effect on stability of rhodopsin segments (difference in unfolding force relative to 0 μM Zn^2+) [1, 4]: destabilize the majority of the segments
Compound: [Ca+2].[Cl-].[Cl-] [calcium, CaCl2]
- effect on stability of rhodopsin segments (difference in unfolding force relative to 0 μM Zn^2+) ([1]; 200 μM metal ion in buffer, FIG. 3A, listed as Ca^2+): destabilize or have no effect on the majority of the segments

Compound: CCN1C(=O)C=CC1=O [N-ethylmaleimide]
- fold increase in the proportion of the 65 nm curves [2, 6]: 3.5 fold
- fraction of total rhodopsin molecules that lack the Cys110-Cys187 bond [2, 6]: ⅛

Compound: endoproteinase Glu-C: protease (Roche Applied Science) used to digest ROS membranes in cleavage experiments
- fraction of short curves (<40 nm) of the total curves ([3]; digested sample (untreated sample 23%)): 55%
- fraction of ≈65 nm and ≈95 nm long curves ([3]; enzymatically treated sample): 2%

Compound: [Cl-].[Cl-].[Co+2] [cobalt, CoCl2]
- effect on stability of rhodopsin segments (difference in unfolding force relative to 0 μM Zn^2+) [1]: destabilize the majority of the segments; also recorded: destabilize or have no effect on the majority of the segments

- effect on the stability of rhodopsin ([1]; 25 mM Mg^2+, FIG. 3B): almost no effect
Compound: [Cl-].[Cl-].[Mg+2] [magnesium, MgCl2]

Compound: [Cl][Cd][Cl] [cadmium, CdCl2]
- effect on stability of rhodopsin segments (difference in unfolding force relative to 0 μM Zn^2+) [1, 4]: destabilize the majority of the segments
- effect on stability of rhodopsin segments (difference in unfolding force relative to 0 μM Zn^2+) ([1]; 200 μM metal ion in buffer, FIG. 3A, listed as Cd^2+): destabilize or have no effect on the majority of the segments
